In patent publication US10654828B2 (NOVARTIS AG, priority 2017, dated 2020) one finds AC50 data, which are given here for 22 compounds.

In assay [1] the test system is FoxO3a. The experiment in a line: FoxO3a inhibition: GFP-FoxO3a nuclear to cytoplasmic translocation reporter assay. In kind it is cell-based. The settings on record: Homo sapiens, U2OS, 0.5 h, U2OS GFP-FoxO3a H212R cells, serum starved overnight, compound 30 minutes; ratio of nuclear to cytosolic GFP intensity; DMSO control 0%; read-out: FoxO AC50. The procedure:
(§1) Phosphorylation of AKT on S473 and FoxO3a nuclear to cytoplasmic translocation were used as readouts of PI3K/Akt/mTOR pathway activation downstream of growth factor signaling.
(§2) Reporter cell line. U2OS GFP-FoxO3a H212R reporter cell line was established by transducing U2OS cells with the retroviral plasmid pLEGFP-C1 containing FoxO3a H212R transgene and selecting for G418 resistant clones.
(§3) Reporter assay. U2OS GFP-FoxO3a H212R cells were plated in 384-well plates at 4000 cells per well in 30 microliters of McCoy's 5 A medium containing 10% FBS. On day 1 the cells were washed with serum free medium and serum starved overnight. On day 2 the cells were treated with different doses of the compounds for 30 minutes, fixed with 4% Paraformaldehyde for 1 hour and stained with Phospho-AKT (Ser473) antibody (Cell Signaling Technology, catalog #4060) overnight at 4 degrees Celsius. After nuclei staining with Hoechst 33342 (Life Technologies, catalog # H3570) the plates were imaged with InCell 2000 (GE Healthcare Bio-Sciences). FoxO3a inhibition activity is calculated as the ratio of nuclear to cytosolic GFP intensity in percent. AKT activation is measured as the total cellular intensity of Phospho-AKT antibody staining in percent. DMSO control is set as 0% activity.
In general terms: A reporter such as luciferase makes a cellular process visible.

The test system of assay [2] is AKT. The experiment in a line: AKT activation: Phospho-AKT (Ser473) antibody staining in reporter cells. As to conditions: Homo sapiens, U2OS, 0.5 h, U2OS GFP-FoxO3a H212R cells, serum starved overnight, compound 30 minutes; total cellular intensity of Phospho-AKT (Ser473) staining; DMSO control 0%. In kind it is cell-based. The procedure:
as §1, §2, §3

A value given as a limit tells only on which side of the number the result lay.

In the case of `Cc1cc(C(N)=O)nn1-c1ccc2c(ccn2Cc2ccc(-c3cccc(S(N)(=O)=O)c3)cc2)c1` [Example 1-20, 5-methyl-1-(1-((3′-sulfamoyl-[1,1′-biphenyl]-4-yl)methyl)-1H-indol-5-yl)-1H-pyrazole-3-carboxamide], the AC50 in assay [1] is 126 nM; in assay [2] it was over 10000 nM.
In the case of `Cc1cc(C(N)=O)nn1-c1ccc2c(ccn2Cc2ccc(-c3ccc4cc[nH]c4c3)cc2)c1` [Example 1-21, 1-(1-(4-(1H-indol-6-yl)benzyl)-1H-indol-5-yl)-5-methyl-1H-pyrazole-3-carboxamide], the results for the AC50 in assay [1] and in assay [2] were 420 nM and 2970 nM, respectively.
As for `Cc1cc(C(N)=O)nn1-c1ccc2c(ccn2Cc2ccc(-c3ccc4cnn(C)c4c3)cc2)c1` [Example 1-22, 5-methyl-1-(1-(4-(1-methyl-1H-indazol-6-yl)benzyl)-1H-indol-5-yl)-1H-pyrazole-3-carboxamide], the AC50 in assay [1] was determined as 167 nM; in assay [2], 507 nM.
For `Cc1cc(C(N)=O)nn1-c1ccc2c(ccn2Cc2ccc(-c3ccc(N(C)C)nc3)cc2)c1` [Example 1-23, 1-(1-(4-(6-(dimethylamino)pyridin-3-yl)benzyl)-1H-indol-5-yl)-5-methyl-1H-pyrazole-3-carboxamide] the same measures were 93 nM and 293 nM.
For `COc1cc(-c2ccc(Cn3ccc4cc(-n5nc(C(N)=O)cc5C)ccc43)cc2)ccn1` [Example 1-24, 1-(1-(4-(2-methoxypyridin-4-yl)benzyl)-1H-indol-5-yl)-5-methyl-1H-pyrazole-3-carboxamide] the same measures were 123 nM and 349 nM.
Take `Cc1cc(C(N)=O)nn1-c1ccc2c(ccn2Cc2ccc(-c3ccc4c(c3)CCNC4=O)cc2)c1` [Example 1-25, 5-methyl-1-(1-(4-(1-oxo-1,2,3,4-tetrahydroisoquinolin-6-yl)benzyl)-1H-indol-5-yl)-1H-pyrazole-3-carboxamide]: the AC50 was determined as 56 nM in assay [1] and 197 nM in assay [2].
As to `Cc1cc(C(N)=O)nn1-c1ccc2c(ccn2Cc2ccc(-c3ccc(N)cc3)cc2)c1` [Example 1-26, 1-(1-((4′-amino-[1,1′-biphenyl]-4-yl)methyl)-1H-indol-5-yl)-5-methyl-1H-pyrazole-3-carboxamide], the figures for the AC50 in assay [1] and in assay [2] were 129 nM and over 10000 nM, respectively.
For the compound `Cc1cc(C(N)=O)nn1-c1ccc2c(ccn2Cc2ccc(-c3ccc(F)cc3)cc2)c1` [Example 1-27, 1-(1-((4′-fluoro-[1,1′-biphenyl]-4-yl)methyl)-1H-indol-5-yl)-5-methyl-1H-pyrazole-3-carboxamide], the AC50 in assay [1] was 229 nM; in assay [2], over 10000 nM.
For the compound `COc1ncc(-c2ccc(Cn3ccc4cc(-n5nc(C(N)=O)cc5C)ccc43)cc2)cn1` [Example 1-28, 1-(1-(4-(2-methoxypyrimidin-5-yl)benzyl)-1H-indol-5-yl)-5-methyl-1H-pyrazole-3-carboxamide], the AC50 in assay [1] was 223 nM; in assay [2], 1170 nM.
For `Cc1cc(C(N)=O)nn1-c1ccc2c(ccn2Cc2ccc(-c3cnc(N)nc3)cc2)c1` [Example 1-29, 1-(1-(4-(2-aminopyrimidin-5-yl)benzyl)-1H-indol-5-yl)-5-methyl-1H-pyrazole-3-carboxamide] the same measures were 340 nM and 774 nM.
The corresponding values for `COc1ccc(-c2ccc(Cn3ccc4cc(-n5nc(C(N)=O)cc5C)ccc43)cc2)cc1` [Example 1-30, 1-(1-((4′-methoxy-[1,1′-biphenyl]-4-yl)methyl)-1H-indol-5-yl)-5-methyl-1H-pyrazole-3-carboxamide] are 216 nM and 952 nM.
For `Cc1cc(C(N)=O)nn1-c1ccc2c(ccn2Cc2ccc(-c3ccc4c(c3)CC(=O)N4)cc2)c1` [Example 1-31, 5-methyl-1-(1-(4-(2-oxoindolin-5-yl)benzyl)-1H-indol-5-yl)-1H-pyrazole-3-carboxamide] the same measures were 55 nM and 138 nM.
`Cc1cc(C(N)=O)nn1-c1ccc2c(ccn2Cc2ccc(-c3ccc(CO)cc3)cc2)c1` [Example 1-32, 1-(1-((4′-(hydroxymethyl)-[1,1′-biphenyl]-4-yl)methyl)-1H-indol-5-yl)-5-methyl-1H-pyrazole-3-carboxamide]: the values for the AC50 in assay [1] and in assay [2] were 205 nM and 578 nM, respectively.
For `Cc1cc(C(N)=O)nn1-c1ccc2c(ccn2Cc2ccc(-c3ccc(NS(C)(=O)=O)cc3)cc2)c1` [Example 1-33, 5-methyl-1-(1-((4′-(methylsulfonamido)-[1,1′-biphenyl]-4-yl)methyl)-1H-indol-5-yl)-1H-pyrazole-3-carboxamide] the same measures were 82 nM and 351 nM.
The corresponding values for `Cc1cc(C(N)=O)nn1-c1ccc2c(ccn2Cc2ccc(-c3ccc(CN)cc3)cc2)c1` [Example 1-34, 1-(1-((4′-(aminomethyl)-[1,1′-biphenyl]-4-yl)methyl)-1H-indol-5-yl)-5-methyl-1H-pyrazole-3-carboxamide] are 248 nM and 743 nM.
For `Cc1cc(C(N)=O)nn1-c1ccc2c(ccn2Cc2ccc(-c3ccc(C(=O)N(C)C)cc3)cc2)c1` [Example 1-35, 1-(1-((4′-(dimethylcarbamoyl)-[1,1′-biphenyl]-4-yl)methyl)-1H-indol-5-yl)-5-methyl-1H-pyrazole-3-carboxamide] the same measures were 60 nM and 217 nM.
On to `Cc1cc(C(N)=O)nn1-c1ccc2c(ccn2Cc2ccc(-c3cnc(N(C)C)nc3)cc2)c1` [Example 1-36, 1-(1-(4-(2-(dimethylamino)pyrimidin-5-yl)benzyl)-1H-indol-5-yl)-5-methyl-1H-pyrazole-3-carboxamide], for which the half-maximal activity concentration (AC50) came out at 477 nM in assay [1] and 1050 nM in assay [2].
As to `Cc1cc(C(N)=O)nn1-c1ccc2c(ccn2Cc2ccc(-c3ccc(CN4CCOCC4)cc3)cc2)c1` [Example 1-37, 5-methyl-1-(1-((4′-(morpholinomethyl)-[1,1′-biphenyl]-4-yl)methyl)-1H-indol-5-yl)-1H-pyrazole-3-carboxamide], the results for the AC50 in assay [1] and in assay [2] were 75 nM and 206 nM, respectively.
As to `Cc1cc(C(N)=O)nn1-c1ccc2c(ccn2Cc2ccc(-c3ccc(C(=O)NCCN4CCOCC4)cc3)cc2)c1` [Example 1-38, 5-methyl-1-(1-((4′-((2-morpholinoethyl)carbamoyl)-[1,1′-biphenyl]-4-yl)methyl)-1H-indol-5-yl)-1H-pyrazole-3-carboxamide], the figures for the AC50 in assay [1] and in assay [2] were 78 nM and 240 nM, respectively.
As for `Cc1cc(C(N)=O)nn1-c1ccc2c(ccn2Cc2ccc(C3CCCNC3)cc2)c1` (centres unmarked) [Example 2-4, 5-methyl-1-(1-(4-(piperidin-3-yl)benzyl)-1H-indol-5-yl)-1H-pyrazole-3-carboxamide], the AC50 in assay [1] is 429 nM; in assay [2] it was 1630 nM.
Regarding `Cc1cc(C(N)=O)nn1-c1ccc2c(ccn2Cc2ccc(C3CCN(C)CC3)cc2)c1` [Example 2-5, 5-methyl-1-(1-(4-(1-methylpiperidin-4-yl)benzyl)-1H-indol-5-yl)-1H-pyrazole-3-carboxamide], the values for the AC50 in assay [1] and in assay [2] were 281 nM and 760 nM, respectively.
Take `Cc1cc(C(N)=O)nn1-c1ccc2c(ccn2Cc2ccc(C3=CCNCC3)cc2)c1` [Example 3, 5-methyl-1-(1-(4-(1,2,3,6-tetrahydropyridin-4-yl)benzyl)-1H-indol-5-yl)-1H-pyrazole-3-carboxamide]: the AC50 came out at 476 nM in assay [1] and 1170 nM in assay [2].

The AC50 is the concentration giving half of the maximal activity seen.
